From patent US20110086759A1, “CHEMICAL COMPOUNDS” (SYNGENTA CROP PROTECTION, INC., priority 2007, published 2011)

Experiments:
Type in all cases: in vivo
[1] = system: Alopecurus myosuroides (ALOMY); assay: Pre-emergence biological efficacy, glasshouse pot test; settings: 312 h, pre-emergence, 1,000 g/ha, evaluated after 13 days (100=total damage; 0=no damage), read-out: Percentage damage ALOMY
Method in brief: (§1)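 Visual phytotoxicity (0 no damage, 100 total damage) assessed 13 d after treatment. Soil-sown pots sprayed one day post-sowing; dose 1000 or 250 g/ha; formulation in acetone/water 50:50, 0.5% Tween 20.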

[2] = system: Amaranthus retoflexus (AMARE); assay: as above; settings: Amaranthus retroflexus, 312 h; pre-emergence, 1,000 g/ha, evaluated after 13 days (100=total damage; 0=no damage); read-out: Percentage damage AMARE
Method in brief: as §1

[3] = system: Echinochloa crus-galli (ECHCG); assay: as above; settings: 312 h, pre-emergence, 1,000 g/ha, evaluated after 13 days (100=total damage; 0=no damage), read-out: Percentage damage ECHCG
Method in brief: as §1

[4] = system: Ipomea hederaceae (IPOHE); assay: as above; settings: Ipomoea hederacea, 312 h; pre-emergence, 1,000 g/ha, evaluated after 13 days (100=total damage; 0=no damage); read-out: Percentage damage IPOHE
Method in brief: as §1

[5] = system: Setaria faberi (SETFA); assay: as above; settings: 312 h, pre-emergence, 1,000 g/ha, evaluated after 13 days (100=total damage; 0=no damage), read-out: Percentage damage SETFA
Method in brief: as §1

[6] = system: Solanum nigrum (SOLNI); assay: as above; settings: 312 h, pre-emergence, 1,000 g/ha, evaluated after 13 days (100=total damage; 0=no damage), read-out: Percentage damage SOLNI
Method in brief: as §1

[7] = system: Alopecurus myosuroides (ALOMY); assay: Post-emergence biological efficacy, glasshouse pot test; settings: 312 h, post-emergence, 1,000 g/ha, evaluated after 13 days (100=total damage; 0=no damage), read-out: Percentage damage caused to weed species, ALOMY
Method in brief: (§2)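 Pot-grown weeds were sprayed 8 days after sowing with test compound in acetone/water (50:50) with 0.5% Tween 20 at 1000 or 250 g/ha. Glasshouse at 24/16° C day/night, 14 h light, 65% humidity. Damage scored 0-100 (100 = total damage) after 13 days.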

[8] = system: Amaranthus retoflexus (AMARE); assay: as above; settings: Amaranthus retroflexus, 312 h; post-emergence, 1,000 g/ha, evaluated after 13 days (100=total damage; 0=no damage); read-out: Percentage damage caused to weed species, AMARE
Method in brief: as §2

[9] = system: Echinochloa crus-galli (ECHCG); assay: as above; settings: 312 h, post-emergence, 1,000 g/ha, evaluated after 13 days (100=total damage; 0=no damage), read-out: Percentage damage caused to weed species, ECHCG
Method in brief: as §2

[10] = system: Ipomea hederaceae (IPOHE); assay: as above; settings: Ipomoea hederacea, 312 h; post-emergence, 1,000 g/ha, evaluated after 13 days (100=total damage; 0=no damage); read-out: Percentage damage caused to weed species, IPOHE
Method in brief: as §2

[11] = system: Setaria faberi (SETFA); assay: as above; settings: 312 h, post-emergence, 1,000 g/ha, evaluated after 13 days (100=total damage; 0=no damage), read-out: Percentage damage caused to weed species, SETFA
Method in brief: as §2

[12] = system: Solanum nigrum (SOLNI); assay: as above; settings: 312 h, post-emergence, 1,000 g/ha, evaluated after 13 days (100=total damage; 0=no damage), read-out: Percentage damage caused to weed species, SOLNI
Method in brief: as §2

Compound	pest or weed control at 1000 g/ha [1] [%]	pest or weed control at 1000 g/ha [2] [%]	pest or weed control at 1000 g/ha [3] [%]	pest or weed control at 1000 g/ha [4] [%]	pest or weed control at 1000 g/ha [5] [%]	pest or weed control at 1000 g/ha [6] [%]	pest or weed control at 1000 g/ha [7] [%]	pest or weed control at 1000 g/ha [8] [%]	pest or weed control at 1000 g/ha [9] [%]	pest or weed control at 1000 g/ha [10] [%]	pest or weed control at 1000 g/ha [11] [%]	pest or weed control at 1000 g/ha [12] [%]
COC(=O)c1nc(C2CC2)nc(NCC(=O)OCc2ccccc2)c1Cl [Compound 4-265, 5-Chloro-2-cyclopropyl-6-methoxycarbonyl-4-(phenylmethoxy-carbonylmethyl-amino)pyrimidine]	10	100	30	90	30	90	20	100	20	60	40	70
COC(=O)c1nc(C2CC2)nc(NCCC(=O)OCc2ccccc2)c1Cl [Compound 4-266, 5-Chloro-2-cyclopropyl-6-methoxycarbonyl-4-[2-(phenylmethoxy-carbonyl)ethyl-amino]-pyrimidine]	50	100	60	100	60	100	60	100	50	100	70	80
COC(=O)c1nc(C2CC2)nc(NCC(c2ccccc2)c2ccccc2)c1Cl [Compound 4-267, 5-Chloro-2-cyclopropyl-4-[2,2-(diphenyl)-ethylamino]-6-methoxycarbonyl-pyrimidine]	10	90	10	60	10	60	10	90	10	70	20	80
COC(=O)c1nc(C2CC2)nc(NC(C)COc2ccccc2)c1Cl (stereo not drawn) [Compound 4-268, 5-Chloro-2-cyclopropyl-6-methoxycarbonyl-4-(2-phenoxy-1-methylethylamino)-pyrimidine]	0	10	0	10	0	10	10	30	10	50	10	60
COC(=O)c1nc(C2CC2)nc(NC(C)COc2ccc(C#N)cc2)c1Cl (stereo not drawn) [Compound 4-269, 5-Chloro-4-[2-(4-cyanophenoxy)-1-methyl-ethylamino]-2-cyclopropyl-6-methoxycarbonyl-pyrimidine]	0	40	0	0	0	0	20	100	0	90	60	70
COC(=O)c1nc(C2CC2)nc(NC(C)C(O)c2ccc(O)cc2)c1Cl (stereo not drawn) [Compound 4-271, 5-Chloro-2-cyclopropyl-4-[2-hydroxy-2-(4-hydroxyphenyl)-1-methyl-ethylamino]-6-methoxycarbonyl-pyrimidine]	20	100	20	100	30	90	30	100	70	100	80	90
COC(=O)c1nc(C2CC2)nc(NC(CO)Cc2ccc(Cl)cc2)c1Cl (stereo not drawn) [Compound 4-274, 5-Chloro-4-[2-(4-chlorophenyl)-1-hydroxymethyl-ethylamino]-2-cyclopropyl-6-methoxycarbonyl-pyrimidine]	40	60	30	80	40	80	30	100	20	50	30	80
COC(=O)c1nc(C2CC2)nc(NC(c2ccccc2)c2ccccc2)c1Cl [Compound 4-277, 5-Chloro-2-cyclopropyl-4-(diphenylmethyl-amino)-6-methoxy-carbonylpyrimidine]	0	0	0	40	0	0	30	90	50	70	50	50
COC(=O)c1nc(C2CC2)nc(NC(c2ccccc2)c2ccc(Cl)cc2)c1Cl (stereo not drawn) [Compound 4-278, 5-Chloro-4-[(4-chlorophenyl)-(phenyl)-methylamino]-2-cyclopropyl-6-methoxycarbonyl-pyrimidine]	0	40	10	20	10	10	10	90	20	60	40	30
COC(=O)c1nc(C2CC2)nc(NC(Cc2ccccc2)c2ccccc2)c1Cl (stereo not drawn) [Compound 4-279, 5-Chloro-2-cyclopropyl-4-(1,2-diphenylethyl-amino)-6-methoxy-carbonylpyrimidine]	10	20	0	60	0	70	10	90	0	60	40	70
COC(=O)c1nc(C2CC2)nc(NC(Cc2ccccc2)C(=O)OC)c1Cl (stereo not drawn) [Compound 4-283, 5-Chloro-2-cyclopropyl-6-methoxycarbonyl-4-(1-methoxy-carbonyl-2-phenylethylamino)-pyrimidine]	40	100	70	100	80	100	20	100	60	70	60	80
